Consider `CCC(Oc1c(C(C)C)cccc1C(C)C)C(=O)OC1CC(O)C=C2C=CC(C)C(CCC3CC(O)CC(=O)O3)C21` (mixture of isomers), for which the melting point lay in the range of 119 to 121 °C. The same measure for `CN(C)c1nccc(N2CCN(C=O)CC2)n1`: 116 °C; for `O=C(c1ccc(Cl)cc1)c1cc(CBr)ccc1Cl`: 81 to 83 °C; for `N#Cc1nc(-c2cnn(-c3ccc(C(F)(F)F)cc3[N+](=O)[O-])c2Br)[nH]c1C#N`: 86 to 90 °C.

As for `CC(O)CC1NC(=O)c2sccc2-n2cccc21` (stereo not drawn), the melting point was 170 °C. The same measure for `COc1cc(Nc2nccc(-c3ccc(NCCO)nc3)n2)cc(OC)c1OC`: 123 °C. To `CCOC(=O)c1cn(-c2ccc([N+](=O)[O-])cn2)cn1` belongs 212 to 214 °C.

`CN(C)C=Nc1nc(CN2CCN(C(c3ccccc3)c3ccccc3)CC2)cs1` returned a melting point of 148 to 150 °C.

`N#CC1CN1C(=O)CCC(N)=O` (stereo not drawn) displayed a melting point of 68 to 72 °C. To `O=C(NC1CCCCC1)N(Cc1ccc(Cl)cc1)C1CCCC1` belongs 99 to 101 °C; to `COc1cccc(Cc2cc3cccc(-c4cccc(C(=O)Nc5ccc(F)nc5)c4)c3o2)c1`, 196 to 199 °C; to `CNC(=O)NCCN1CCC(Nc2nc3ccccc3n2Cc2ccc(F)cc2)CC1`, 231 °C. `O=C1c2ccccc2C(=O)N1CCCC(O)CF` (stereo not drawn): the melting point was 85 °C. To `NC(=O)c1nc(-c2ccc3nc[nH]c3c2)nc2c1[nH]c(=O)n2-c1ccccc1F` belongs 278 °C; to `CCOC(=O)N1CCC(Nc2nc3ccccc3n2Cc2ccoc2C)CC1`, 150 °C; to `CN(C)CCNc1ccc([N+](=O)[O-])c2sc3ccc(O)cc3c(=O)c12`, over 300 °C.

For the molecule `O=C(O)C(Cc1cccc2c1CCCC2)Cc1cccc2c1CCCC2`, the melting point was 144 to 146 °C.

Turning to `COc1ccc(Nc2ncc3cc(-c4c(Cl)cccc4Cl)c(=O)n(C)c3n2)cc1C`, the melting point was in the range of 218 to 220 °C.

`COCOc1ccc(OC)c(F)c1C(=O)c1ccc(C(=O)N[C@@H]2CCCN(C(=O)OC(C)(C)C)C[C@H]2NC(=O)c2ccncc2)cc1` yielded a melting point of 106 °C. `Brc1ccc2c(c1)/C(=C/CCN1CCCC1)c1cc(Br)ccc1OC2`: the melting point lay within 102 to 103 °C. To `CC(C)(C)NC(=O)[C@@H]1CCCN1C(=O)[C@@H](O)[C@H](Cc1ccccc1)NC(=O)[C@H](CC(N)=O)NC(=O)COC1CCN(Cc2ccccc2)CC1` belongs 94 to 103 °C; to `NC(=NO)c1ccc(C(F)(F)F)cn1`, 130 to 133 °C.

Consider `CC/C=C\C=C/CCCCCCCCCC=O`, for which the melting point lay within 7 to 8 °C.

`COc1ccc(CC(=O)N2CCC3(CC2)Cc2ccccc2O3)cc1` registered a melting point of 87 to 88 °C. For the molecule `CN(C)c1nsc2nc3ccccc3n12`, the melting point was in the range of 102 to 104 °C.

The molecule `COc1ccc(C2=CCCc3cc(OC)ccc32)cc1` gave a melting point of 100 to 102 °C. The same measure for `CCCCCS(=O)(=O)NC(=O)CCc1ccc(OCCOCCOC)cc1Oc1ncc(C(F)(F)F)cc1Cl`: 76 to 77.5 °C; for `C[C@@H]1CCCC[C@H]1C(=O)O` (relative stereo): 51 to 53 °C; for `CC#CCOc1ccc(S(=O)(=O)N(C)C(C(=O)NO)C(C)(C)SCCn2ccnc2)cc1` (stereo not drawn): 97 to 100 °C.

Molecule `CC[C@H](C)[C@H](NC(=O)[C@@H]1CCCN1CC(=O)[C@H](Cc1ccccc1)NC(=O)OCc1ccccc1)C(=O)NCC(C)C` displayed a melting point of 80 to 81 °C. `COc1ccc2sc(-c3ccc(OCCN4CCCC4)cc3)c(C(=O)c3ccc(OC4CCCCC4N4CCCCC4)cc3)c2c1` (stereo not drawn) registered a melting point of 63 to 66 °C. Take `COc1ccc(C=CC(=O)c2c(OC)cc(OC)cc2OC(=O)c2cccnc2)cc1`: the melting point lay in the range of 55 to 60 °C. `OC(c1ccc(Cl)cc1)C(Nn1cncn1)c1ccc(F)cc1F` (stereo not drawn) displayed a melting point of 61 to 76 °C. The same measure for `O=c1c2ncn3c2n(c(=O)n1Cc1ccc([N+](=O)[O-])cc1)CC=C3c1cccc(C(F)(F)F)c1`: 230 to 232 °C; for `N#Cc1ccc(CNC(=O)c2cccc(C#CCn3cncn3)c2)cc1`: 183 to 186 °C. The same measure for `COCCCN1CCC(CNC(=O)c2cc(Cl)c(N)c(OC)c2OC)C(O)C1` (stereo not drawn): 110 °C.

Turning to `COC(=O)C(C)c1cccc(C(=O)c2ccccc2)c1` (stereo not drawn), the melting point is 50 to 52 °C. As for `COC1CCCC2=C(O)C3=C(C(=O)c4ccc(C(C)=O)cc4C3)C(O)C21` (stereo not drawn), the melting point lay within 223 to 226 °C. To `COc1cc(C(=O)N(CCCC(=O)NCCCC(=O)O)c2c(C)cccc2C)cc(OC)c1OC` belongs 100 to 101 °C. The molecule `CCCCCOc1ccc(CO)cc1OC(C)=O` displayed a melting point of 35 to 36 °C. As for `COc1ccc(-n2nc(C(F)(F)F)cc2CO)cc1`, the melting point came out at 79 °C. The same measure for `Cc1cc(Cc2cc3cc(C(F)(F)F)ccc3n2S(=O)(=O)c2cccc(C(C)(C)C)c2)c(F)cc1C(=O)O`: 195 °C; for `CN(C(=O)c1ccc2nonc2c1)C1CCCC(=O)C1` (stereo not drawn): 164 to 165 °C.

For `Brc1cc(-c2ccncc2)cnc1Br`, the melting point lay within 150 to 155 °C. Molecule `CCCCC(CC)COc1ccc(-n2c(C)cc(=O)cc2C)cc1` (stereo not drawn) displayed a melting point of 143 °C.

`Cc1ccc(C2CCC(=NO)c3ccccc32)cc1` (stereo not drawn) came in with a melting point of 97 to 101 °C. To `CCCCCCCCCCCCCCCCCC(=O)n1cc(F)c(=O)[nH]c1=O` belongs 101 °C.

In the case of `COc1ccc(-c2nc3n(c2-c2ccncc2)CCC3)cc1`, the melting point was found to be 158 °C. The molecule `Clc1ccc2c(c1)c(-c1ccccc1)nc1nncn12` showed a melting point of 295 to 297 °C. With `CCOC(=O)c1[nH]c2ccc(Cl)cc2c1S(=O)(=O)c1ccccc1`, the melting point was 201 to 202 °C.

For the molecule `CCOc1cccc(COc2ccc3c(c2)C=C(C(=O)O)CCS3(=O)=O)c1`, the melting point was in the range of 150 to 154 °C.

Molecule `CCOC(=O)c1cc(OCc2ccccc2)c2nc(C)n(C)c2c1` yielded a melting point of 152 °C. `CC(=O)c1cc2c(C(C)=O)c(OCC3CO3)ccc2o1` (stereo not drawn): the melting point was 114 °C. To `CCCCOC(=O)N1CCNCC1` belongs 98 °C; to `CCOc1nn(Cc2ccc(OCc3cccnc3)c(OC)c2)cc1CCC(=O)O`, 124 to 125 °C. Molecule `O=Cc1c(Cl)ccc2cc(Cl)cnc12` came in with a melting point of 208 °C. To `FC(F)(F)c1cc(Nc2nc3ccccc3o2)ccc1Cl` belongs 199 to 200 °C; to `CS(=O)c1ccc(-c2coc3ccc(-c4nnc(SCc5cccc(F)c5)o4)cc23)cc1` (stereo not drawn), 135 to 136 °C.

As to `Nc1cc(-n2cc(C(=O)O)c(=O)c3cc(F)c(F)cc32)c(F)cc1F`, the melting point is over 270 °C. To `O=S(=O)(Nc1cccc2c(Cl)c[nH]c12)c1cccc(Cl)c1` belongs 180 to 181 °C; to `COc1c(C2CCN(CCCCNC(=O)c3ccc(-c4ccc(C#N)s4)nc3)CC2)ccc2c1CCCC2`, 186 to 188 °C. To `Cc1ccc(-c2ccc(S(C)(=O)=O)c(F)c2)n1-c1ccc(-c2cscn2)cc1` belongs 215 °C.

The molecule `CC1CCC2Oc3ccc(Cl)cc3C(=O)N2O1` (stereo not drawn) registered a melting point of 210 to 213 °C.

For `CC(=O)Oc1cc(OCC(OC(C)=O)c2ccc3c(c2)C(C)(C)CCC3(C)C)ccc1C(=O)O` (stereo not drawn), the melting point lay within 88 to 89 °C. `CCOC(=O)C1=C(C)Nc2ccnc(OC(C)C)c2C1c1cccs1` (stereo not drawn) showed a melting point of 110 to 111 °C. The molecule `Cc1cc(N(C)C(N)=O)no1` registered a melting point of 146 to 147 °C. As to `CC(=O)Nc1ccc2c(c1)NC(=O)C2=C(C)C`, the melting point was 93 °C.

`CCCCn1ccc(Cc2cnc(N[N+](=O)[O-])[nH]c2=O)cc1=O` displayed a melting point of 198 to 201 °C.

`C[Si](C)(C)C#Cc1c(C(F)(F)F)nn(-c2c(Cl)cc(C(F)(F)F)cc2Cl)c1N` displayed a melting point of 120 to 123 °C. The same measure for `CN1CCN(C(=O)c2ccc3n2Cc2ccccc2N(C(=O)c2ccc(C4CCCCC4)cc2)C3)CC1`: 134 to 136 °C. To `CCCNc1nc(C)c(CCO)c(=O)n1C` belongs 240 °C. `CCC(=S)N1CCC[C@H]1C(=O)O` yielded a melting point of 123 to 124 °C.

`Cc1ccc(N2C(=O)C(O)=C(C(=O)c3ccc(C(C)C)cc3)C2c2ccc(OC(C)C)nc2)nn1` (stereo not drawn) yielded a melting point of 282 °C. The same measure for `CCCC(CCC)(CC(=O)O)CC(=O)O`: 107 °C; for `BrCC=C(c1ccc(I)cc1)c1ccc(I)cc1`: 105 to 109 °C; for `COc1c(CCCI)cccc1OCc1coc(/C=C/c2ccccc2)n1`: 103 to 104 °C. Molecule `O=C(O)CCOCc1ccccc1` showed a melting point of 35.2 °C. The same measure for `N#Cc1c(N2CCN(C(=O)c3ccco3)CC2)c2cc(F)ccc2n(Cc2ccc(F)cc2)c1=O`: 248 °C; for `Cc1nc[nH]c1CSCCNC1=NC(=O)C(Cc2ccccc2)N1` (stereo not drawn): 104 to 107 °C. The same measure for `CN(CCCNC(=NCCCOc1cccc(CN2CCCCC2)c1)NC#N)CCN(Cc1ccc(F)cc1)c1ccccn1`: 65 to 68 °C; for `Cc1ccc(C)n1-c1cc(F)c(C2=CCSCC2)c(F)c1`: 118 to 119 °C; for `CC1(C)C=C(I)C(=O)C(C)(C)C1`: 41 to 42 °C. The same measure for `Cc1nc(N2CCN(Cc3ccc(C(F)(F)F)cc3)C2=O)sc1-c1cc[nH]n1`: 212 to 213 °C. With `CCCCCCc1nc(N)n2nc(-c3ccco3)nc2n1`, the melting point lay in the range of 131 to 133 °C.

Turning to `CCCCCCC(=N)NC(=S)Nc1ccc(Cl)c(Cl)c1`, the melting point lay within 89 to 90 °C. Molecule `CCCc1c(C(=O)OCC)nc2ccccc2c1OCc1ccccc1` showed a melting point of 127 to 129 °C. `CC(C)CNCc1cnc2[nH]c(-c3cc(OCc4ccccc4)ccc3OC(C)C)nc2c1` had a melting point of 101 to 103 °C. Molecule `CCOC(=O)c1c(OCC)c2ccc(C)nc2n(CC)c1=O` displayed a melting point of 77 to 79 °C.

One may read the melting point as the temperature of the solid-liquid transition.

The values above are taken from a melting point compilation (Tetko et al.; mined from patent text by program, amines drawn as free bases though some values may be those of a salt).
